What was measured:
CYP1A2 = target: T1, CYP1A2 (Homo sapiens, UniProt P05177); assay: CYP450 enzyme inhibition in human liver microsomes, CYP1A2; format: in vitro ADME; conditions: substrate Phenacetin, read-out: Inhibitory activity IC50 (μM) CYP1A2
T1 construct: 0.05 mg/mL liver microsome (BioIVT, IHG) phosphate buffer solution; tissue BioIVT IHG; host or cells: human liver microsomes
T1 sequence (P05177 1-516): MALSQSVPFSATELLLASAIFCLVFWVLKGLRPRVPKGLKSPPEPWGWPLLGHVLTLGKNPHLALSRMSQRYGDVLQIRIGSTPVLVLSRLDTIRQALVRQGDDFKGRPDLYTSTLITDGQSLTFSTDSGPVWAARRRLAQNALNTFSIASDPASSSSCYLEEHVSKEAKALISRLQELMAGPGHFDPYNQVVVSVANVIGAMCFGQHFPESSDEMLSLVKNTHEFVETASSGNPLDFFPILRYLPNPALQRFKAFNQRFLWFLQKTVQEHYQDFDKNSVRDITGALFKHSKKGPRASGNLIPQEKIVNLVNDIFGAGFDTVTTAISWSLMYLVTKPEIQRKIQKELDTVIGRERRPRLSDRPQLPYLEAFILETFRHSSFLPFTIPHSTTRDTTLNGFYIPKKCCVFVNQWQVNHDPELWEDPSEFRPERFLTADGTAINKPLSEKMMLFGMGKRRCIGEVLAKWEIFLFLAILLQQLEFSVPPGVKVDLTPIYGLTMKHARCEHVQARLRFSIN
Description: This experiment incubates the compound, liver microsomes and different CYP subtype enzyme substrates in a 37° C. water bath to measure the amount of substrate metabolites produced and evaluate the inhibitory effect of the compound of the present disclosure on CYP enzymes based on the IC50 value.
i. The compound was diluted to 0, 0.02 mM, 0.06 mM, 0.2 mM, 0.6 mM, 2 mM and 6 mM concentrations with DMSO (Aladdin, catalog number: D103273-500 ml).
ii. The enzyme substrate solutions of each CYP subtype were prepared by phosphate buffer (sigma: V900050-500G).
iii. Sample incubation. […] After centrifugation at 4000 rpm and 4° C. for 40 min, the supernatant was diluted with pure water according to the response of the substrate metabolites and then detected by UPLC-MS/MS (Sciex, Q-Trap 4500). […]
The inhibitory effect of the compound on each P450 enzyme in human liver microsomes was calculated as the percentage of reduced metabolite formation compared with the non-inhibitory control (i.e., blank DMSO). The IC50 value for each P450 enzyme in human liver microsomes was calculated using the logarithm of the remaining activity and the inhibitor concentration using Graphpad Prism software. […]

[1] = target: T2, His6-Flag-TEV-NLRP3 (134-1036) (Homo sapiens, UniProt Q96P20); assay: NLRP3 fluorescence polarization (FP) binding assay, competition with probe NP3-301; conditions: competition with NP3-301 for binding to NLRP3 (134-1036), 30 nM protein
T2 construct: fused on or other part: N-terminal His6 tag, Flag tag and TEV cleavage site
How it was run: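 Compound was preincubated 60 min at room temperature with NLRP3 protein (30 nM final) in 50 mM Hepes pH 7.4, 150 mM NaCl, 2.5 mM MgCl2, 1 mM TCEP, 100 μM ATP. Probe NP3-301 (0.5 nM final) was then added for 30 min. Fluorescence polarization was read at ex 485/em 535 nm, and IC50 was obtained by four-parameter logistic fit.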

T2 sequence (Q96P20 134-1036 limits assumed): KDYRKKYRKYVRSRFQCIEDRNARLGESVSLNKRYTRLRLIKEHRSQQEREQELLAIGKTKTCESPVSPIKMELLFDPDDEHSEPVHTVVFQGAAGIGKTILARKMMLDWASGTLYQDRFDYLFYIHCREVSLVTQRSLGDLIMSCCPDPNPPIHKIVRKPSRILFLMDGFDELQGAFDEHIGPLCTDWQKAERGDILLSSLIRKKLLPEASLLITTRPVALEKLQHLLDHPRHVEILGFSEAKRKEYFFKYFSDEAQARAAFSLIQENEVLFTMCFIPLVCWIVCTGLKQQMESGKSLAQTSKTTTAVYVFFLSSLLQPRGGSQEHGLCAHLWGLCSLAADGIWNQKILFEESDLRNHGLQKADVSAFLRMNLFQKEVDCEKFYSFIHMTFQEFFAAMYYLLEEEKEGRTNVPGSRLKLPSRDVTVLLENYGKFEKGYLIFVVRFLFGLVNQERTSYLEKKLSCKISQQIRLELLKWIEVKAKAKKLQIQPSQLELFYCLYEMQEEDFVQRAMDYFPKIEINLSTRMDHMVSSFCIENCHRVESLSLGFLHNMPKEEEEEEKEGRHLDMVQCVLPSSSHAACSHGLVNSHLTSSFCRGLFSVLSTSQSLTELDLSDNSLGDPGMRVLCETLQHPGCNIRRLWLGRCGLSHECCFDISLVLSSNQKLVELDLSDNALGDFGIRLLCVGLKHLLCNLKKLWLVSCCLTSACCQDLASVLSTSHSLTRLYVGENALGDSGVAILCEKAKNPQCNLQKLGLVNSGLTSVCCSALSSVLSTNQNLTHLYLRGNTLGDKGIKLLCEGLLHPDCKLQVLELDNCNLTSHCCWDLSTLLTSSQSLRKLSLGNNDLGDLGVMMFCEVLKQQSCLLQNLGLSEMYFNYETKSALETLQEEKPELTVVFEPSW

IC50 (CYP1A2): > 30 µM
IC50 [1]: ≤ 0.1 µM
Compound: CC(=O)N1CCOC[C@H]1CNc1nc2nc(-c3c(C)cc(C(F)(F)F)cc3O)ccc2o1 [Compound 111]
